{"source": "patent US20120053119A1", "about": "“THERAPEUTIC METHOD FOR INCREASING PANCREATIC BETA CELL MASS” (priority 2009, published 2012)", "format_in_all_cases": "cell-based", "key": {"Wnt target genes": {"test_system": "Wnt target genes", "assay": "Wnt signaling pathway-focused microarray (SuperArray) of INS-1 cells treated with SDF-1", "conditions": "4 hrs", "experimental": "FIG. 8. Wnt signaling focused array analysis. INS-1 cells were stimulated by SDF-1 (10 nM) for 4 hr. Total RNA was isolated and biotin-labeled complementary RNAs were generated. The Wnt signaling pathway-focused microarray filters (SuperArray Bioscience) were hybridzed with these biotin-labeled targets at 60 degree overnight. The filters were washed and subsequently incubated with alkaline phosphatase-conjugated streptavidin and CDP-substrate. The chemiluminescent images were captured. For quantification, the spot intensity was measured and normalized to the value of the housekeeping gene GADPH. Shown is a representative image of the focused array.\n(§1) Gene expression profiling on focused microarrays INS-1 cells were untreated or treated with 10 nM SDF-1 for 4 hrs. Total RNA was isolated and Biotin-labeled complimentary RNAs were generated using the TrueLabeling-AMP Linear RNA Amplification Kit (SuperArray Bioscience Corp.) The Wnt-signaling pathway-focused microarray filters (118 probes) (SuperArray Bioscience Corp.) were hybridized with these biotin-labeled targets (5 microg/array at 60 C overnight. The filters were washed and subsequently incubated with alkaline phosphatase-conjugated streptavidin and CDPStar substrate. The Chemiluminescent images were captured using Kodak Digital Station 440 (Perkin Elmer). For quantification, the spot intensity was measured and normalized to the value of the housekeeping gene GAPDH. Fold-changes in gene expression levels were determined by comparisons of hybridization densities of SDF-1 treated versus untreated INS-1 cells. Real time RT-PCR was carried out by using the SYBR® Green QPCR kit (Stratagene). Briefly, INS-1 cells were treated with 10 nM SDF-1 or PBS vehicle control for 4 h. Total RNA was reverse-transcribed to cDNA using Super-Script II reverse transcriptase (Invitrogen). Real-time PCR was performed to amplify cyclin D1 and beta-catenin.\nThe expression of transcripts in INS-1 cells in response to SDF-1 (10 nM, 4 hrs) was determined on focused arrays of genes expressed in the Wnt signaling pathway. […] This finding is consistent with the down-regulation of genes expressing components of the beta-catenin destruction box involved in the degradation of beta-catenin that occurs in the absence of active Wnt signaling; for example, axin, glycogen synthase kinase-3 (Gsk3) and casein kinase 1 (Csnk1). These findings are consistent with the mechanism of Wnt/Fz-induced signaling involving Galphai/o activation of disheveled (Dv1) and the inhibition of the destruction box enzymes GSK3 and Csnk1 that destabilize and degrade betacatenin."}, "INS-1 cells": {"test_system": "INS-1 cells", "assay": "Real time RT-PCR of beta-catenin and cyclin D1 mRNA in INS-1 cells", "conditions": "SDF-1 4 hr, relative to vehicle-treated control", "experimental": "FIG. 9. […] Data are normalized by using the housekeeping gene GADPH as an internal control and represent means±S.D. of three independent experiments. Statistical significance is depicted as (p<0.01) when compared with control values.\nas §1, with “Total RNA was reverse-transcribed to cDNA using Super-Script II reverse transcriptase (Invitrogen). Real-time PCR was performed to amplify cyclin D1 and beta-catenin.” left out"}, "Akt": {"test_system": "Akt", "assay": "Phospho-Akt to Akt ratio by Western immunoblot in alphaTC-1 cells", "text": "FIG. 18. Activation of CXCR4 by SDF-1 in alphaTC-1 cells induces phosphorylation of Akt. Shown is a semi-quantitative measurement of the ratio of phospho-Akt to Akt (lower) determined by Western immunoblots (upper)."}, "[1]": {"test_system": "GLP-1 receptor (GLP-1R) mRNA", "assay": "GLP-1R mRNA by RT-PCR in alphaTC-1 cells", "conditions": "SDF-1 10 nM, by 4 hrs", "experimental": "FIG. 21. SDF-1 induces the expression of the GLP-1 receptor (GLP-1R) mRNA in alphaTC-1 cells. […] RNA levels were determined by RT-PCR."}, "human islets": {"test_system": "human islets", "assay": "SDF-1 mRNA by QRT-PCR in human islets ex vivo", "conditions": "4 hours; SDF-1 10 nM or 50 nM; two cytokine mixtures", "experimental": "FIG. 29. […] 50 human islets were treated with control, cytokine mixture or SDF-1 for 4 hr, mRNA was then extracted and QRT-PCR was performed. Cytokines 1: 2 ng/ml IL-1beta, 10 ng/ml TNF-alpha, 10 ng/ml IFN-gamma. Cytokines 2: 10 ng/ml IL-1beta, 50 ng/ml TNF-alpha, 50 ng/ml IFN-gamma.\nGroups of 50 human islet cells were treated with one of vehicle control, two different cytokine mixtures (Cytokines 1: 2 ng/ml IL-1beta, 10 ng/ml TNF-alpha, 10 ng/ml IFN-gamma; Cytokines 2: 10 ng/ml IL-1beta, 50 ng/ml TNF-alpha, 50 ng/ml IFN-gamma), or SDF-1 at one of two different concentrations (10 nM or 50 nM) for 4 hours. SDF-1 mRNA was then extracted and QRT-PCR was performed."}, "mouse islets": {"test_system": "mouse islets", "assay": "GLP-1 production in mouse islets ex vivo, radioimmunoassay", "conditions": "batches of 50 islets, medium 1 and 4 hours, lysate 4 hr; SDF-1 10 nM", "experimental": "FIG. 37. Cytokines and SDF-1 stimulate GLP-1 production in mouse islets ex vivo. Batches of 50 islets were treated with control, cytokine mixture, or 10 nM SDF-1. Medium was collected in 1 hr and 4 hr. Islet lysate was collected in 4 hr. GLP-1. Immunoreactive protein was measured by radioimmunoassay.\nBatches of 50 islets were treated with a control vehicle, a cytokine mixture, or 10 nM SDF-1. Medium was collected from each batch at 1 hour and 4 hours, and islet lysate was collected in 4 hr. the concentration of GLP-1 contained in each sample collected was measured by radioimmunoassay of the immunoreactive protein."}}}
{"substance": "SDF-1: small, secreted 70 amino acid peptide chemokine, SEQ ID NO: 1, ligand of CXCR4", "values": [{"measurement": "mRNA fold change by SDF-1", "setting": "Wnt target genes; gene Axin1, SDF-1 10 nM", "value": "−2.58", "unit": "fold"}, {"measurement": "mRNA fold change by SDF-1", "setting": "Wnt target genes; gene Ccnd1 (Cyclin D1), SDF-1 10 nM", "value": 1.48, "unit": "fold"}, {"measurement": "mRNA fold change by SDF-1", "setting": "Wnt target genes; gene Ccnd2 (Cyclin D2), SDF-1 10 nM", "value": "−2.29", "unit": "fold"}, {"measurement": "mRNA fold change by SDF-1", "setting": "Wnt target genes; gene Csnk2a1 (Casein kinase II, Alpha1), SDF-1 10 nM", "value": "−1.42", "unit": "fold"}, {"measurement": "mRNA fold change by SDF-1", "setting": "Wnt target genes; gene Csnk2b (Casein kinase 2, beta subunit), SDF-1 10 nM", "value": "−3.03", "unit": "fold"}, {"measurement": "mRNA fold change by SDF-1", "setting": "Wnt target genes; gene Ctbp1 (C-terminal binding protein 1), SDF-1 10 nM", "value": "−2.32", "unit": "fold"}, {"measurement": "mRNA fold change by SDF-1", "setting": "Wnt target genes; gene Ctnnb1 (Catenin (cadherin associated protein), beta 1), SDF-1 10 nM", "value": 1.99, "unit": "fold"}, {"measurement": "mRNA fold change by SDF-1", "setting": "Wnt target genes; gene Cxxc4 (CXXC finger 4), SDF-1 10 nM", "value": "−1.43", "unit": "fold"}, {"measurement": "mRNA fold change by SDF-1", "setting": "Wnt target genes; gene Dvl1 (Dishevelled, dsh homolog 1), SDF-1 10 nM", "value": "−1.92", "unit": "fold"}, {"measurement": "mRNA fold change by SDF-1", "setting": "Wnt target genes; gene Fosl1 (Fos-like antigen 1), SDF-1 10 nM", "value": 1.72, "unit": "fold"}, {"measurement": "mRNA fold change by SDF-1", "setting": "Wnt target genes; gene Foxn1 (Forkhead box N1), SDF-1 10 nM", "value": 1.66, "unit": "fold"}, {"measurement": "mRNA fold change by SDF-1", "setting": "Wnt target genes; gene Fshb (Follicle stimulating hormone beta), SDF-1 10 nM", "value": 1.69, "unit": "fold"}, {"measurement": "mRNA fold change by SDF-1", "setting": "Wnt target genes; gene Fzd2 (Frizzled homolog 2), SDF-1 10 nM", "value": 1.43, "unit": "fold"}, {"measurement": "mRNA fold change by SDF-1", "setting": "Wnt target genes; gene Gsk3a (Glycogen synthase kinase 3 alpha), SDF-1 10 nM", "value": "−1.67", "unit": "fold"}, {"measurement": "mRNA fold change by SDF-1", "setting": "Wnt target genes; gene Gsk3b (Glycogen synthase kinase 3 beta), SDF-1 10 nM", "value": "−1.51", "unit": "fold"}, {"measurement": "mRNA fold change by SDF-1", "setting": "Wnt target genes; gene Lrp5_predicted (Low density lipoprotein receptor-related protein 5), SDF-1 10 nM", "value": 1.72, "unit": "fold"}, {"measurement": "mRNA fold change by SDF-1", "setting": "Wnt target genes; gene Myc, SDF-1 10 nM", "value": "−2.55", "unit": "fold"}, {"measurement": "mRNA fold change by SDF-1", "setting": "Wnt target genes; gene Ppp2cb (Protein phosphatase 2, catalytic subunit, beta isoform), SDF-1 10 nM", "value": "−2.12", "unit": "fold"}, {"measurement": "mRNA fold change by SDF-1", "setting": "Wnt target genes; gene Ppp2r1b (Protein phosphatase 2, regulatory subunit A (PR 65), beta isoform), SDF-1 10 nM", "value": "−1.71", "unit": "fold"}, {"measurement": "mRNA fold change by SDF-1", "setting": "Wnt target genes; gene Rhoa (Ras homolog gene family, member A), SDF-1 10 nM", "value": "−1.32", "unit": "fold"}, {"measurement": "mRNA fold change by SDF-1", "setting": "Wnt target genes; gene Slc9a3r1 (Solute carrier family 9, isoform 3 regulator 1), SDF-1 10 nM", "value": 1.43, "unit": "fold"}, {"measurement": "mRNA fold change by SDF-1", "setting": "Wnt target genes; gene Tcfe2a (Transcription factor E2a), SDF-1 10 nM", "value": 1.61, "unit": "fold"}, {"measurement": "mRNA fold change by SDF-1", "setting": "Wnt target genes; gene Wif1 (Wnt inhibitory factor 1), SDF-1 10 nM", "value": "−1.92", "unit": "fold"}, {"measurement": "mRNA fold change by SDF-1", "setting": "Wnt target genes; gene Wnt7b (Wingless-related MMTV integration site 7B), SDF-1 10 nM", "value": 1.59, "unit": "fold"}, {"measurement": "beta-catenin mRNA expression", "setting": "INS-1 cells", "value": 3, "unit": "fold"}, {"measurement": "cyclin D1 mRNA expression", "setting": "INS-1 cells", "value": 2, "unit": "fold"}, {"measurement": "Akt activation (phosphorylation) in alpha cells", "setting": "Akt", "value": "activates Akt"}, {"measurement": "GLP-1R mRNA expression", "setting": "[1]", "value": "induces the expression of GLP-1R"}, {"measurement": "SDF-1 expression (mRNA) in human islets", "setting": "human islets", "value": "induce SDF-1 expression"}, {"measurement": "production of GLP-1 by mouse islets", "setting": "mouse islets", "value": "induces the production of GLP-1"}]}
